# Numbers after ± are expanded uncertainties.
# Conditions: Liquid, Vibrating tube method
compound,measurement,setting,value
CCC(C)O (stereo not drawn) [butan-2-ol],mass density,"323.15 K, 57941 kPa",822.2 ± 1 kg/m3
same,mass density,"323.15 K, 65042 kPa",826.2 ± 1 kg/m3
same,mass density,"323.16 K, 83 kPa",780.1 ± 0.8 kg/m3
same,mass density,"323.16 K, 310 kPa",780.3 ± 0.8 kg/m3
same,mass density,"323.16 K, 904 kPa",780.9 ± 0.8 kg/m3
same,mass density,"323.16 K, 2023 kPa",781.9 ± 0.8 kg/m3
same,mass density,"323.16 K, 2969 kPa",782.8 ± 0.8 kg/m3
same,mass density,"323.16 K, 22069 kPa",798.7 ± 0.9 kg/m3
same,mass density,"323.16 K, 30034 kPa",804.5 ± 0.9 kg/m3
same,mass density,"323.16 K, 32030 kPa",805.9 ± 0.9 kg/m3
same,mass density,"323.16 K, 33179 kPa",806.7 ± 0.9 kg/m3
same,mass density,"323.16 K, 34081 kPa",807.3 ± 0.9 kg/m3
same,mass density,"323.16 K, 35135 kPa",808 ± 0.9 kg/m3
same,mass density,"323.16 K, 44962 kPa",814.4 ± 0.9 kg/m3
same,mass density,"323.16 K, 48021 kPa",816.3 ± 1 kg/m3
same,mass density,"323.16 K, 55018 kPa",820.5 ± 1 kg/m3
same,mass density,"323.16 K, 60048 kPa",823.4 ± 1 kg/m3
same,mass density,"323.16 K, 62109 kPa",824.6 ± 1 kg/m3
same,mass density,"323.16 K, 66222 kPa",826.9 ± 1 kg/m3
same,mass density,"328.15 K, 97 kPa",775.5 ± 0.8 kg/m3
same,mass density,"328.15 K, 549 kPa",775.9 ± 0.8 kg/m3
same,mass density,"328.15 K, 2980 kPa",778.3 ± 0.8 kg/m3
same,mass density,"328.15 K, 6989 kPa",782.1 ± 0.8 kg/m3
same,mass density,"328.15 K, 9026 kPa",784 ± 0.9 kg/m3
same,mass density,"328.15 K, 10174 kPa",785 ± 0.9 kg/m3
same,mass density,"328.15 K, 15005 kPa",789.1 ± 0.9 kg/m3
same,mass density,"328.15 K, 17974 kPa",791.5 ± 0.9 kg/m3
same,mass density,"328.15 K, 22112 kPa",794.8 ± 0.9 kg/m3
same,mass density,"328.15 K, 28057 kPa",799.3 ± 0.9 kg/m3
same,mass density,"328.15 K, 30020 kPa",800.7 ± 0.9 kg/m3
same,mass density,"328.15 K, 32096 kPa",802.2 ± 0.9 kg/m3
same,mass density,"328.15 K, 33090 kPa",802.9 ± 0.9 kg/m3
same,mass density,"328.15 K, 34106 kPa",803.6 ± 0.9 kg/m3
same,mass density,"328.15 K, 38003 kPa",806.3 ± 0.9 kg/m3
same,mass density,"328.15 K, 40189 kPa",807.7 ± 0.9 kg/m3
same,mass density,"328.15 K, 42227 kPa",809.1 ± 0.9 kg/m3
same,mass density,"328.16 K, 325 kPa",775.7 ± 0.8 kg/m3
same,mass density,"328.16 K, 909 kPa",776.3 ± 0.8 kg/m3
same,mass density,"328.16 K, 1025 kPa",776.4 ± 0.8 kg/m3
same,mass density,"328.16 K, 2032 kPa",777.5 ± 0.8 kg/m3
same,mass density,"328.16 K, 4986 kPa",780.3 ± 0.8 kg/m3
same,mass density,"328.16 K, 12064 kPa",786.6 ± 0.9 kg/m3
same,mass density,"328.16 K, 20081 kPa",793.3 ± 0.9 kg/m3
same,mass density,"328.16 K, 25008 kPa",797.1 ± 0.9 kg/m3
same,mass density,"328.16 K, 33187 kPa",802.9 ± 0.9 kg/m3
same,mass density,"328.16 K, 35148 kPa",804.3 ± 0.9 kg/m3
same,mass density,"328.16 K, 45203 kPa",811.1 ± 1 kg/m3
same,mass density,"328.16 K, 48119 kPa",812.8 ± 1 kg/m3
same,mass density,"328.16 K, 50027 kPa",814 ± 1 kg/m3
same,mass density,"328.16 K, 52217 kPa",815.4 ± 1 kg/m3
same,mass density,"328.16 K, 55140 kPa",817.1 ± 1 kg/m3
same,mass density,"328.16 K, 58016 kPa",818.7 ± 1 kg/m3
same,mass density,"328.16 K, 59968 kPa",819.8 ± 1 kg/m3
same,mass density,"328.16 K, 61968 kPa",820.9 ± 1 kg/m3
same,mass density,"328.16 K, 65013 kPa",822.7 ± 1 kg/m3
same,mass density,"328.16 K, 66143 kPa",823.3 ± 1 kg/m3
same,mass density,"333.15 K, 100 kPa",770.5 ± 0.8 kg/m3
same,mass density,"333.15 K, 350 kPa",770.7 ± 0.8 kg/m3
same,mass density,"333.15 K, 494 kPa",770.9 ± 0.8 kg/m3
same,mass density,"333.15 K, 901 kPa",771.3 ± 0.8 kg/m3
same,mass density,"333.15 K, 1016 kPa",771.5 ± 0.8 kg/m3
same,mass density,"333.15 K, 2000 kPa",772.4 ± 0.8 kg/m3
same,mass density,"333.15 K, 3021 kPa",773.4 ± 0.8 kg/m3
same,mass density,"333.15 K, 5004 kPa",775.4 ± 0.8 kg/m3
same,mass density,"333.15 K, 7066 kPa",777.4 ± 0.8 kg/m3
same,mass density,"333.15 K, 8994 kPa",779.1 ± 0.9 kg/m3
same,mass density,"333.15 K, 10031 kPa",780 ± 0.9 kg/m3
same,mass density,"333.15 K, 11980 kPa",781.8 ± 0.9 kg/m3
same,mass density,"333.15 K, 15020 kPa",784.5 ± 0.9 kg/m3
same,mass density,"333.15 K, 17985 kPa",786.9 ± 0.9 kg/m3
same,mass density,"333.15 K, 22042 kPa",790.2 ± 0.9 kg/m3
same,mass density,"333.15 K, 25059 kPa",792.7 ± 0.9 kg/m3
same,mass density,"333.15 K, 28048 kPa",794.9 ± 0.9 kg/m3
same,mass density,"333.15 K, 29961 kPa",796.3 ± 0.9 kg/m3
same,mass density,"333.15 K, 32126 kPa",798 ± 0.9 kg/m3
same,mass density,"333.15 K, 32780 kPa",798.4 ± 0.9 kg/m3
same,mass density,"333.15 K, 32804 kPa",798.4 ± 0.9 kg/m3
same,mass density,"333.15 K, 33981 kPa",799.2 ± 0.9 kg/m3
same,mass density,"333.15 K, 35081 kPa",800 ± 0.9 kg/m3
same,mass density,"333.15 K, 38040 kPa",802.1 ± 0.9 kg/m3
same,mass density,"333.15 K, 39970 kPa",803.4 ± 0.9 kg/m3
same,mass density,"333.15 K, 45112 kPa",806.9 ± 1 kg/m3
same,mass density,"333.15 K, 47953 kPa",808.7 ± 1 kg/m3
same,mass density,"333.15 K, 50048 kPa",810.1 ± 1 kg/m3
same,mass density,"333.15 K, 52052 kPa",811.3 ± 1 kg/m3
same,mass density,"333.15 K, 55007 kPa",813.2 ± 1 kg/m3
same,mass density,"333.15 K, 62024 kPa",817.4 ± 1 kg/m3
same,mass density,"333.15 K, 64970 kPa",819.1 ± 1 kg/m3
same,mass density,"333.15 K, 66117 kPa",819.8 ± 1 kg/m3
same,mass density,"333.16 K, 20151 kPa",788.8 ± 0.9 kg/m3
same,mass density,"333.16 K, 42099 kPa",804.9 ± 0.9 kg/m3
same,mass density,"333.16 K, 58002 kPa",815 ± 1 kg/m3
same,mass density,"333.16 K, 60019 kPa",816.2 ± 1 kg/m3
same,mass density,"338.15 K, 99 kPa",765.5 ± 0.8 kg/m3
same,mass density,"338.15 K, 292 kPa",765.7 ± 0.8 kg/m3
same,mass density,"338.15 K, 539 kPa",766 ± 0.8 kg/m3
same,mass density,"338.15 K, 892 kPa",766.4 ± 0.8 kg/m3
same,mass density,"338.15 K, 1007 kPa",766.5 ± 0.8 kg/m3
same,mass density,"338.15 K, 3160 kPa",768.7 ± 0.8 kg/m3
same,mass density,"338.15 K, 4911 kPa",770.5 ± 0.8 kg/m3
same,mass density,"338.15 K, 10039 kPa",775.5 ± 0.9 kg/m3
same,mass density,"338.15 K, 12002 kPa",777.3 ± 0.9 kg/m3
same,mass density,"338.15 K, 15149 kPa",780.1 ± 0.9 kg/m3
same,mass density,"338.15 K, 18051 kPa",782.6 ± 0.9 kg/m3
same,mass density,"338.15 K, 19986 kPa",784.2 ± 0.9 kg/m3
same,mass density,"338.15 K, 21999 kPa",785.9 ± 0.9 kg/m3
same,mass density,"338.15 K, 32975 kPa",794.4 ± 0.9 kg/m3
same,mass density,"338.15 K, 35130 kPa",796 ± 0.9 kg/m3
same,mass density,"338.15 K, 40077 kPa",799.5 ± 0.9 kg/m3
same,mass density,"338.15 K, 44943 kPa",802.8 ± 1 kg/m3
same,mass density,"338.15 K, 48022 kPa",804.9 ± 1 kg/m3
same,mass density,"338.15 K, 52052 kPa",807.5 ± 1 kg/m3
same,mass density,"338.15 K, 55069 kPa",809.5 ± 1 kg/m3
same,mass density,"338.15 K, 58033 kPa",811.3 ± 1 kg/m3
same,mass density,"338.15 K, 60108 kPa",812.6 ± 1 kg/m3
same,mass density,"338.15 K, 62047 kPa",813.7 ± 1 kg/m3
same,mass density,"338.15 K, 65005 kPa",815.5 ± 1 kg/m3
same,mass density,"338.15 K, 66128 kPa",816.2 ± 1 kg/m3
same,mass density,"338.16 K, 2082 kPa",767.6 ± 0.8 kg/m3
same,mass density,"338.16 K, 6964 kPa",772.5 ± 0.8 kg/m3
same,mass density,"338.16 K, 8976 kPa",774.5 ± 0.9 kg/m3
same,mass density,"338.16 K, 24990 kPa",788.3 ± 0.9 kg/m3
same,mass density,"338.16 K, 27960 kPa",790.7 ± 0.9 kg/m3
same,mass density,"338.16 K, 30065 kPa",792.3 ± 0.9 kg/m3
same,mass density,"338.16 K, 31895 kPa",793.7 ± 0.9 kg/m3
same,mass density,"338.16 K, 32982 kPa",794.5 ± 0.9 kg/m3
same,mass density,"338.16 K, 33953 kPa",795.1 ± 0.9 kg/m3
same,mass density,"338.16 K, 37933 kPa",798 ± 0.9 kg/m3
same,mass density,"338.16 K, 41987 kPa",800.8 ± 1 kg/m3
same,mass density,"338.16 K, 50029 kPa",806.2 ± 1 kg/m3
same,mass density,"343.15 K, 90 kPa",760.2 ± 0.8 kg/m3
same,mass density,"343.15 K, 290 kPa",760.5 ± 0.8 kg/m3
same,mass density,"343.15 K, 469 kPa",760.6 ± 0.8 kg/m3
same,mass density,"343.15 K, 910 kPa",761.1 ± 0.8 kg/m3
same,mass density,"343.15 K, 1032 kPa",761.3 ± 0.8 kg/m3
same,mass density,"343.15 K, 1994 kPa",762.3 ± 0.8 kg/m3
same,mass density,"343.15 K, 4978 kPa",765.5 ± 0.8 kg/m3
same,mass density,"343.15 K, 7040 kPa",767.6 ± 0.8 kg/m3
same,mass density,"343.15 K, 9056 kPa",769.6 ± 0.9 kg/m3
same,mass density,"343.15 K, 10137 kPa",770.7 ± 0.9 kg/m3
same,mass density,"343.15 K, 12089 kPa",772.5 ± 0.9 kg/m3
same,mass density,"343.15 K, 14318 kPa",774.6 ± 0.9 kg/m3
same,mass density,"343.15 K, 15186 kPa",775.4 ± 0.9 kg/m3
same,mass density,"343.15 K, 17997 kPa",777.9 ± 0.9 kg/m3
same,mass density,"343.15 K, 19975 kPa",779.7 ± 0.9 kg/m3
same,mass density,"343.15 K, 22054 kPa",781.5 ± 0.9 kg/m3
same,mass density,"343.15 K, 25145 kPa",784.1 ± 0.9 kg/m3
same,mass density,"343.15 K, 27969 kPa",786.3 ± 0.9 kg/m3
same,mass density,"343.15 K, 30130 kPa",788.1 ± 0.9 kg/m3
same,mass density,"343.15 K, 31848 kPa",789.4 ± 0.9 kg/m3
same,mass density,"343.15 K, 32904 kPa",790.1 ± 0.9 kg/m3
same,mass density,"343.15 K, 33014 kPa",790.3 ± 0.9 kg/m3
same,mass density,"343.15 K, 33950 kPa",790.9 ± 0.9 kg/m3
same,mass density,"343.15 K, 35008 kPa",791.7 ± 0.9 kg/m3
same,mass density,"343.15 K, 38168 kPa",794.1 ± 0.9 kg/m3
same,mass density,"343.15 K, 39957 kPa",795.4 ± 0.9 kg/m3
same,mass density,"343.15 K, 42001 kPa",796.8 ± 1 kg/m3
same,mass density,"343.15 K, 44975 kPa",798.9 ± 1 kg/m3
